Reference: US5208245A, “Dihydropyridine derivative” (Wakunaga Seiyaku Kabushiki Kaisha, priority 1990, dated 1993)

Key:
[1] = system: spontaneous hypertensive rats; experiment: Antihypertensive action in spontaneous hypertensive rats (SHR), oral administration; assay type: in vivo, rat; conditions: 10 mg/kg orally, (basal - lowest blood pressure)/basal x 100
Procedure: Test compounds were orally administered to spontaneous hypertensive rats (abbreviated as "SHR" hereinafter) to examine antihypertensive actions thereof.
Two to three days after the operation, the catheter was drawn out from the dorsum cervical part of the rat, and was connected to a blood-pressure measuring device (Polygraph RM-6000 manufactured by Nippon Koden K. K.). Blood pressure and heart rate were measured under the condition without anesthesia and restraint. The test compounds were suspended in 0.5% carboxymethylcellulose for oral administration. To the basal blood pressure obtained by measuring blood pressure over four hours, the lowest blood pressure decreased by the test compounds was used to determine the rate of blood-pressure decrease.
Rate of blood-pressure decrease (%)=(A-B)/A×100
The compound numbers correspond to those indicated in Examples.

[2] = system: longitudinal muscle of guinea pig ileum; experiment: Calcium antagonism: inhibition of KCl-induced contraction of ileum longitudinal muscle; conditions: Cavia porcellus, 1 h; 10^-8 M; 60 min after addition; 80 mM KCl contraction = 100%; 37° C.; read-out: Inhibition rate
Procedure: A guinea pig having a body weight ranging from 350 g to 400 g was exsanguinated to death and laparotomized, to extract ileum. According to the method of Rosenberger et al. (Rosenberger et al., Can. J. Physiol. Pharmacol. 57, 333-347 (1979)), a sample of longitudinal muscle was prepared from the ileum. Then, a mixed gas consisting of 95% oxygen and 5% carbon dioxide was aerated, while the atmosphere was maintained at 37° C. The sample of the longitudinal muscle of the extracted ileum was placed in a magnus tube containing 20 ml of Tyrode solution, and suspended at 0.5 g of tension. As a comparison, 80 mM KCl was administered to contract the longitudinal muscle. Subsequently, 60 min after the addition of each of the test compounds (10^-8 M), the contraction with KCl was again induced. The level of the contraction obtained by the administration of 80 mM KCl was assigned to 100%, and the inhibition rate thereto was determined.

[3] = Acute toxicity test, intravenous, mice; conditions: mouse, in vivo, male ddY mice, observed two weeks
Procedure: Male ddY mice (5-7 weeks old) were divided into groups each consisting of 4 mice. The test compounds were dissolved in physiological saline containing 50% polyethylene glycol 400, which was then administered intravenously to the mice, and they were put under observation over two weeks. The analysis was done following the Van der Worden method.

Row | Compound | Rate of blood pressure decrease [1] | inhibition at 0.01 µM [2] | LD50 at 336 h [3]
1 | COC(=O)C1=C(C)NC(C)=C(C(=O)OC2CCOc3ccccc32)C1c1cccc(Cl)c1Cl (stereo not drawn) [Compound 3] | 35.1% | 81% | 
2 | COC(=O)C1=C(C)NC(C)=C(C(=O)OC2CC(C)(C)Oc3ccccc32)C1c1cccc(Cl)c1Cl (stereo not drawn) [Compound 21, 3-(3,4-dihydro-2,2-dimethyl-2H-benzo[b]pyran-4-yl)5-methtyl 1,4-dihydro-2,6-dimethyl-4-(2,3-dichorophenyl)pyridine-3,5-dicarboxylate] | 37.3% | 69% | 29.7 mg/kg
3 | CCOC(=O)C1=C(C)NC(C)=C(C(=O)OC2CC(C)(C)Oc3ccccc32)C1c1cccc(Cl)c1Cl (stereo not drawn) [Compound 27, 3-(3,4-dihydro-2,2-dimethyl-2H-benzo[b]pyran-4-yl)5-ethyl 1,4-dihydro-2,6-dimethyl-4-(2,3-dichlorophenyl)pyridine-3,5-dicarboxylate] | 36.9% | 42% | 
4 | COC(=O)C1=C(C)NC(C)=C(C(=O)OC)C1c1ccccc1[N+](=O)[O-] [Nifedipine, reference compound] | 24.3% | 98% | 
